From patent US20220306603A1, “TARGETING DNA REPAIR IN TUMOR CELLS VIA INHIBITION OF ERCC1-XPF” (The Governors of the University of Alberta, priority 2019, published 2022)
“Also recorded” adds a separate entry of the source.

Assays:
HCT116 cells [1] = experiment: Clonogenic survival assay, cyclophosphamide treatment; format: cell-based, human; conditions: cyclophosphamide 0-300 μM; compound 1-4 μM
Protocol: Plates were incubated for another 8 days at 37° C. in a 5% CO2 atmosphere for colony formation. After this period plates were stained with crystal violet, colonies were counted, and plating efficiency and surviving fraction were calculated.

[2] = ADME screening: cell permeability and efflux ratio; conditions: for Cell permeability (Mean recovery %) (in words): Table 8
ERCC1-XPF = target: T1, ERCC1-XPF (Homo sapiens, UniProt Q92889); experiment: Microplate fluorescence incision assay of ERCC1-XPF endonuclease activity; format: biochemical; conditions: for inhibition of ERCC1-XPF endonuclease activity (in words): compounds 10 μM each; for IC50: full-length ERCC1-XPF, 30 minutes incubation, 5% DMSO, read-out: IC50 of ERCC1-XPF endonuclease activity
T1 construct: His6; made in house; host or cells: E. coli BL21 (DE3)
T1 sequence (Q92889 1-916): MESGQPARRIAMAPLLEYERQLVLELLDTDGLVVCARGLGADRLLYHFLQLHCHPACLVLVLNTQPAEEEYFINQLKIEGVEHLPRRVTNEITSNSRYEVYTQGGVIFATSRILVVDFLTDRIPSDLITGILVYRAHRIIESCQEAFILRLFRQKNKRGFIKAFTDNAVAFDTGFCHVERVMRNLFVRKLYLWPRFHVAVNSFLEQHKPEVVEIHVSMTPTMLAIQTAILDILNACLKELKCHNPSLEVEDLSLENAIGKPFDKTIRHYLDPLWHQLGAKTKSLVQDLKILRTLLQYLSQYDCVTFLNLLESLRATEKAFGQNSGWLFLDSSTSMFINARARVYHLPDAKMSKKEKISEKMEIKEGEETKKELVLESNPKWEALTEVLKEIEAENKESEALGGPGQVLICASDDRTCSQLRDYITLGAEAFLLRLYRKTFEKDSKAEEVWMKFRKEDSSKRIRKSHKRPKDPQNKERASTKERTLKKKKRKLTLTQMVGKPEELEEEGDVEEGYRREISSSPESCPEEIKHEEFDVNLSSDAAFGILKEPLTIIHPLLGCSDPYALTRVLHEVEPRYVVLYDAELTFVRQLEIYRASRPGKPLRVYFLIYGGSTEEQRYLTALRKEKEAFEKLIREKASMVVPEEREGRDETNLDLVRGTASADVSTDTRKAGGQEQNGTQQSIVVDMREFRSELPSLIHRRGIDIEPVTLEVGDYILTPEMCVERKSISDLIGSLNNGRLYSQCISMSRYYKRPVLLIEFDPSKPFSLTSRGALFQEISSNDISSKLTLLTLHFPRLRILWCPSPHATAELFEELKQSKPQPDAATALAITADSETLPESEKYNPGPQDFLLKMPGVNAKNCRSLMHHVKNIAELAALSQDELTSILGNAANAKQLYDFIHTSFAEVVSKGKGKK
Excerpt: This assay has been previously described (29), and utilizes a stem-loop substrate (composed of a 10mer-duplex stem and a 20mer-oligodT single-strand loop), labelled on the 5′-terminus with 6-FAM and 3′ with the quencher dabcyl.
Human ERCC1-XPF wild-type protein was obtained as previously described (29). Basically, the recombinant protein was expressed from a bicistronic plasmid (provided by Dr. Richard Wood, University of Texas MD Anderson Cancer Center, Smithville, Tex.) in the E. coli BL21 (DE3) strain. Since both XPF and ERCC1 contained a polyhistidine (His-6) tag, the proteins extracted from E. coli were incubated with a ProBond Nickel-Chelating Resin (Thermo Fisher Scientific). Protein eluted from the Ni affinity column was subsequently loaded into a Hi-trap heparin column (GE Healthcare). Fractions recovered from the heparin column that contained ERCC1-XPF were dialyzed, concentrated and stored at −80° C. in 10 mM HEPES pH 7.4, 2.5 mM p-mercaptoethanol, 0.01% CHAPS, 0.25 mM EDTA, 50% glycerol and 25 mM NaCl.
A previously described protocol (2,29) was followed.

[3] = ADME screening: solubility; format: physicochemical; conditions: Table 8
HCT116 cells [4] = experiment: Cellular repair of UV-induced cyclobutane pyrimidine dimers (immunofluorescence); format: cell-based, human; conditions: 8 J/m^2 UV-C, up to 24 h post-irradiation
Protocol: Protocol of Mirzayans et al. was followed with minor modifications (30). Approximately 1×10^5 HCT116 cells were seeded on each coverslip and allowed to attach overnight. Medium was then removed and cells were treated for one hour with the desired compound. The medium was removed, and cells were exposed to 8 J/m^2 UV-C radiation (G15T8 254 nm lamp, Ushio America Inc, Cypress, Calif.) followed by adding fresh medium containing the compound. Plates were incubated at 37° C. for different periods of time up to 24 hours and fixed in 50:50 methanol/1× phosphate-buffered saline (PBS) solution, followed by replacing the methanol/PBS solution with 100% methanol and incubation in −20° C. After 20 minutes, methanol was removed, and cells were treated with PBS for 5 minutes in room temperature. After fixing, cells were permeabilized in 0.5% Triton/PBS and washed with PBS, denatured in 2 N HCl, and neutralized by twice washing with 0.1 M borate buffer pH 8.5. Cells on cover slips were washed once with PBS followed by blocking with 5% non-fat dry milk/PBS for 30 minutes. Mouse anti-thymine dimer monoclonal antibody (Cat. No. MC-062, Kamiya Biomedical Company, Seattle, Wash.) was applied to the cover slips for one hour in the dark and at room temperature. Cells were then washed with PBS containing 0.1% Tween-20 and incubated with rabbit anti-mouse IgG-Alexafluor antibody (Invitrogen, Carlsbad, Calif.) followed by two washes with PBS/(0.1%)Tween-20. Cells on coverslips were then washed with PBS, rinsed with water, and mounted on slides using DAPI glycerol mounting solution. Slides were kept at 4° C. before fluorescent microscopic evaluation and measurement of fluorescence intensity with MetaXpress Version: 6.2.1.704 software (Molecular Devices, Sunnyvale, Calif.).
To test for inhibition of nucleotide excision repair, we monitored the cellular removal of UVC-induced cyclobutane pyrimidine dimers (CPDs) in HCT116 cells over a 24-hour period using an immunochemical assay.

HCT116 cells [5] = experiment: Clonogenic survival assay, UV treatment; format: cell-based, human; conditions: 254 nm UV 0-10 J/m^2; compound 0.5-4 μM
Protocol: UV treatment: HCT116 cells (100-800 cells depending on the UV dose) were plated in triplicate in 60-mm petri dishes. The cells were incubated overnight at 37° C. in a humidified atmosphere containing 5% CO2 to allow for cell attachment. […] Medium was removed again, and cells were exposed to increasing doses (0-10 J/m^2) of UV-C radiation and then incubated for a further 10 days in the presence of inhibitor at 37° C. in a 5% CO2 atmosphere to allow for colony formation. After this period plates were stained with crystal violet and colonies were counted using a Colcount instrument (Oxford Optronix, Abingdon UK). Finally, plating efficiency and surviving fraction were calculated.

ADME screening: LogD = conditions: for logD: pH 7.4
DNA = experiment: Binding constant to DNA; conditions: Table 7
ERCC1-XPF complex = target: T2, ERCC1-XPF complex (Homo sapiens, UniProt Q92889); experiment: Steady-state intrinsic tryptophan fluorescence quenching binding assay; conditions: Table 7; read-out: Kd protein
T2 construct: His6; made in house; host or cells: E. coli BL21 (DE3)
T2 sequence (Q92889 1-916): T1 sequence (Q92889 1-916)
Protocol: Steady-state fluorescence spectra were measured at room temperature on a Perkin-Elmer LS-55 spectrofluorometer (Freemont, Calif.) with 5 nm spectral resolution for excitation and emission using 30-80 nM solution of purified recombinant ERCC1-XPF protein complex. […] In studying the effects of inhibitors on protein fluorescence intensities, additions to protein samples were made from inhibitors stock solutions, keeping the protein dilution below 3%.

HCT116 cells [6] = experiment: Cytotoxicity profile: crystal violet viability assay (and colony forming assay); format: cell-based, human
Protocol: Crystal violet viability assays were carried out to assess the cellular toxicity of these compounds to HCT116 cells and to choose relatively non-cytotoxic concentrations to be further utilised in sensitizing cells to UV radiation or cyclophosphamide.
The beneficial effect is especially visible at a concentration of 5.0 μM. At higher concentrations, both compounds show an equal cytotoxic effect (FIG. 15).

[7] = Microsomal stability in vitro (human liver microsomes); conditions: for Microsomal stability in vitro CLint (in words): Table 8
[8] = system: five CYP450 tested enzymes
serum proteins = experiment: ADME screening: serum protein binding; format: in vitro ADME; conditions: Table 8
[9] = Hepatocyte stability in vitro; format: in vitro ADME; conditions: Table 8

SMILES	sensitisation to cyclophosphamide, clonogenic survival (in words) (HCT116 cells [1])	Cell permeability (Mean recovery %) (in words) [2]	inhibition of ERCC1-XPF endonuclease activity (in words) (ERCC1-XPF)	IC50 (ERCC1-XPF)	Solubility (in words) [3]	inhibition of cellular removal of CPDs / thymidine dimers (in words) (HCT116 cells [4])	sensitisation to UV radiation, clonogenic survival (in words) (HCT116 cells [5])	LogD (rating) (ADME screening: LogD; Table 8)	logD (ADME screening: LogD)	Microsomal stability in vitro CLint (in words) [7]	other results
CN(C)CCN1CCN(Cc2cc(Nc3c4ccc(Cl)cc4nc4ccc(O)cc34)ccc2O)CC1 [Gen B9]	significantly sensitised the HCT116 cells to cyclophosphamide	Low	marked capacity to inhibit	490 nM	Unstable	significantly inhibited the removal of CPDs	significantly reduced the survival	Good	2.01	Moderate	efflux ratio ([2]; not told): > 2; inhibition of cellular removal of CPDs / thymidine dimers (in words) (HCT116 cells [4]; listed as B9): significantly different; Kd (DNA): 1050 ± 50 nM; Kd (ERCC1-XPF complex): 85 ± 5 nM; cells survived (HCT116 cells [6]; 5 μM, 3 days exposure, crystal violet): approximately 95%; metabolism on exposure to human liver microsomes (in words) [7]: moderate metabolism
COc1ccc2nc3cc(Cl)ccc3c(Nc3ccc(O)c(CN4CCN(CCN(C(C)C)C(C)C)CC4)c3)c2c1 [Gen C-1, 4-((6-Chloro-2-methoxyacridin-9-yl)amino)-2-((4-(2-(diisopropylamino)ethyl)piperazin-1-yl)methyl)-phenol]	significantly sensitised the HCT116 cells to cyclophosphamide; also recorded: significantly sensitized the cells to cyclophosphamide	Low	higher inhibitory effect	167 nM	Good	significant inhibition of removal of CPDs	significant sensitisation effect	Good	3.95	Low clearance	CVP inhibition (5 enzyme) (rating) [8]: Good; LogD (remark in the LogD row) (ADME screening: LogD; Table 8): (partially soluble); Serum protein binding (% bound) (serum proteins): (99.5) % bound; Serum protein binding (in words) (serum proteins): Strong binding; Hepatocyte stability in vitro CLint (in words) [9]: (medium clearance); cytotoxicity (in words) (HCT116 cells [6]; crystal violet staining, for Gen C1 also colony forming assay): lower cytotoxicity
